# According to patent publication US7713701B2, “DNA-binding polymers” (California Institute of Technology, priority 2004, dated 2010):
# Where “and” joins values, the source holds several entries; their conditions need not be identical. Equal values may be shown once.
# Assays:
# [1] = system: C-G base pair at N-terminal position of binding site 5′-A T N T A C A-3′ (N=C), 285 bp PCR product from plasmid pCW15; test: Quantitative DNase I footprint titration, C-G site; conditions: 22° C., pH 7.0, 10 mM Tris-HCl, 10 mM KCl, 10 mM MgCl2, 5 mM CaCl2, mean of at least three, SD in parentheses
# Experimental: (§1) Oligonucleotide primers SF1 (5′-AATTC-GAGCTCGGTACCGGGG-3′; SEQ ID NO:1) and SF2(5′-[…]-3′; SEQ ID NO:2) were synthesized by the Biopolymer Synthesis Center at the California Institute of Technology. Products from PCR amplification of the pCW15 using 5′-[γ-^32P]-labeled SF1 and SF2 were purified on a 7% non-denaturing polyacrylamide gel. Glycogen (20 mg/mL), dNTPs (PCR nucleotide mix), and all enzymes, unless otherwise stated, were purchased from Boehringer-Mannheim. Deoxyadenosine [γ-^32P]triphosphate was obtained from ICN. Calf thymus DNA (sonicated, deproteinized) and DNase I (7500 units/mL. FPLC pure) were from Amersham Pharmacia. AmpliTaq DNA polymerase was obtained from Perkin-Elmer and was used with provided buffers. Tris.HCl, DTT, RNase-free water, and 0.5 M EDTA were from United States Biochemical. Calcium chloride, potassium chloride, and magnesium chloride were purchased from Fluka. Tris-borate-EDTA was from GIBCO and bromophenol blue was from Acros. All reagents were used without further purification.
# (§2) The DNA sequence specificity of novel thiophene-2-carboxamide-containing polymers (DNA-binding polymers 1-8) was evaluated by comparing their affinities for each Watson-Crick base pair to those of N-methylimidazole (Im) and N-methylpyrrole (Py) (DNA-binding polymers 9-10). […] Affinities were determined using DNase I footprinting, as performed by standard protocols (e.g., Trauger et al., Methods Enzymol. 2001, 340, 450).
# (§3) Briefly, Quantitative DNase I footprinting titration experiments (10 mM Tris-HCl. 10 mM KCl, 10 mM MgC2, 5 mM CaCl2, pH 7.0, 22° C.) were performed on 5′-^32P end-labeled, 285 bp PCR product from plasmid construct pCW15 (as described previously in Ellervik et al., J. Am. Chem. Soc. 2000, 122, 9354). This plasmid contains four binding sites that vary at a single N-terminal position, 5′-A T N T A C A-3′, where N=T, A, G, C. The divergent behavior of control DNA-binding polymers 9 and 10 illustrates the need for development of new N-terminal residues.
# [2] = system: G-C base pair at N-terminal position, binding site 5′-A T G T A C A-3′, 285 bp PCR product from plasmid pCW15; test: Quantitative DNase I footprint titration, G-C site; conditions: for Equilibrium association constant, G-C: DNase I footprint titration, 22° C., pH 7.0, 10 mM Tris-HCl, 10 mM KCl, 10 mM MgCl2, 5 mM CaCl2, mean of at least three, SD in parentheses
# Experimental: as §1, §2, §3
# [3] = system: A-T base pair at N-terminal position of binding site 5′-A T N T A C A-3′ (N=A), 285 bp PCR product from plasmid pCW15; test: Quantitative DNase I footprint titration, A-T site; conditions: 22° C., pH 7.0, 10 mM Tris-HCl, 10 mM KCl, 10 mM MgCl2, 5 mM CaCl2, mean of at least three, SD in parentheses
# Experimental: as §1, §2, §3
# [4] = system: T-A base pair at N-terminal position of binding site 5′-A T N T A C A-3′ (N=T), 285 bp PCR product from plasmid pCW15; test: Quantitative DNase I footprint titration, T-A site; conditions: for Equilibrium association constant, T-A: DNase I footprint titration, 22° C., pH 7.0, 10 mM Tris-HCl, 10 mM KCl, 10 mM MgCl2, 5 mM CaCl2, mean of at least three, SD in parentheses; for preference / specificity for T-A relative to G-C / selectivity for T-A relative to A-T: ratio of association constants
# Experimental: as §1, §2, §3
# [5] = system: four binding sites 5′-A T N T A C A-3′, N=T, A, G, C, of pCW15 PCR product; test: DNase I footprinting, sequence specificity across the four sites; conditions: comparison of affinities for the four Watson-Crick base pairs
# Experimental: as §1, §2, §3
SMILES,"Equilibrium association constant, C-G [1]","Equilibrium association constant, G-C [2]","Equilibrium association constant, A-T [3]","Equilibrium association constant, T-A [4]",preference / specificity for T-A relative to G-C [4],sequence specificity (in words) [5],"preference for G-C relative to T-A, A-T, and C-G base pairs ([2]; ratio of association constants)",selectivity for T-A relative to A-T [4]
Cc1ccsc1C(=O)Nc1cc(C(=O)Nc2cc(C(=O)Nc3cc(C(=O)NCCCC(=O)Nc4cn(C)c(C(=O)Nc5cc(C(=O)Nc6cc(C(=O)Nc7cc(C(=O)NCCC(=O)NCCCN(C)C)n(C)c7)n(C)c6)n(C)c5)n4)n(C)c3)n(C)c2)n(C)c1 [compound 2],1.0 (0.3) × 10^7 M^−1,1.0 (0.4) × 10^7 M^−1,1.4 (0.2) × 10^9 M^−1,2.3 (0.4) × 10^9 M^−1,140 fold,–,–,–
CN(C)CCCNC(=O)CCNC(=O)c1cc(NC(=O)c2cc(NC(=O)c3cc(NC(=O)c4nc(NC(=O)CCCNC(=O)c5cc(NC(=O)c6cc(NC(=O)c7cc(NC(=O)c8sccc8O)cn7C)cn6C)cn5C)cn4C)cn3C)cn2C)cn1C [compound 5],8.4 (0.1) × 10^7 M^−1,2.1 (0.3) × 10^8 M^−1,4.5 (0.6) × 10^9 M^−1,6.2 (0.6) × 10^9 M^−1,–,distinguish T-A from G-C but again do not distinguish T-A from A-T,–,–
CN(C)CCCNC(=O)CCNC(=O)c1cc(NC(=O)c2cc(NC(=O)c3cc(NC(=O)c4nc(NC(=O)CCCNC(=O)c5cc(NC(=O)c6cc(NC(=O)c7cc(NC(=O)c8nccn8C)cn7C)cn6C)cn5C)cn4C)cn3C)cn2C)cn1C [compound 9],3.2 (0.4) × 10^9 M^−1,–,2.8 (0.2) × 10^9 M^−1,3.8 (0.3) × 10^9 M^−1,–,–,> 15 fold,–
CC(=O)Nc1ccsc1C(=O)Nc1cc(C(=O)Nc2cc(C(=O)Nc3cc(C(=O)NCCCC(=O)Nc4cn(C)c(C(=O)Nc5cc(C(=O)Nc6cc(C(=O)Nc7cc(C(=O)NCCC(=O)NCCCN(C)C)n(C)c7)n(C)c6)n(C)c5)n4)n(C)c3)n(C)c2)n(C)c1 [compound 4],6.0 (0.2) × 10^8 M^−1,6.6 (0.4) × 10^8 M^−1,2.9 (0.1) × 10^9 M^−1,5.9 (0.3) × 10^9 M^−1,–,distinguish T-A from G-C but again do not distinguish T-A from A-T,–,–
CN(C)CCCNC(=O)CCNC(=O)c1cc(NC(=O)c2cc(NC(=O)c3cc(NC(=O)c4nc(NC(=O)CCCNC(=O)c5cc(NC(=O)c6cc(NC(=O)c7cc(NC(=O)c8sccc8Cl)cn7C)cn6C)cn5C)cn4C)cn3C)cn2C)cn1C [compound 8],2.1 (1.1)× 10^8 M^−1,3.1 (0.6) × 10^8 M^−1,3.7 (0.2) × 10^9 M^−1,1.3 (0.2) × 10^10 M^−1,–,–,–,3 fold
CN(C)CCCNC(=O)CCNC(=O)c1cc(NC(=O)c2cc(NC(=O)c3cc(NC(=O)c4nc(NC(=O)CCCNC(=O)c5cc(NC(=O)c6cc(NC(=O)c7cc(NC(=O)c8cccs8)cn7C)cn6C)cn5C)cn4C)cn3C)cn2C)cn1C [compound 1],2.2 (0.3) × 10^9 M^−1,4.3 (0.4) × 10^8 M^−1,4.7 (0.7) × 10^9 M^−1,6.0 (0.7) × 10^9 M^−1,–,little sequence specificity,–,–
CN(C)CCCNC(=O)CCNC(=O)c1cc(NC(=O)c2cc(NC(=O)c3cc(NC(=O)c4nc(NC(=O)CCCNC(=O)c5cc(NC(=O)c6cc(NC(=O)c7cc(NC(=O)c8sccc8F)cn7C)cn6C)cn5C)cn4C)cn3C)cn2C)cn1C [compound 7],2.9 (0.3) × 10^8 M^−1,3.7 (0.4) × 10^8 M^−1,3.9 (0.3) × 10^9 M^−1,1.2 (0.2) × 10^10 M^−1,–,–,–,3 fold
CN(C)CCCNC(=O)CCNC(=O)c1cc(NC(=O)c2cc(NC(=O)c3cc(NC(=O)c4nc(NC(=O)CCCNC(=O)c5cc(NC(=O)c6cc(NC(=O)c7cc(NC(=O)c8sccc8N)cn7C)cn6C)cn5C)cn4C)cn3C)cn2C)cn1C [compound 3],2.2 (0.3) × 10^8 M^−1,7.8 (0.9) × 10^8 M^−1,4.6 (0.6) × 10^9 M^−1,6.3 (1.0) × 10^9 M^−1,–,distinguish T-A from G-C but again do not distinguish T-A from A-T,–,–
CN(C)CCCNC(=O)CCNC(=O)c1cc(NC(=O)c2cc(NC(=O)c3cc(NC(=O)c4nc(NC(=O)CCCNC(=O)c5cc(NC(=O)c6cc(NC(=O)c7cc(NC(=O)c8cccn8C)cn7C)cn6C)cn5C)cn4C)cn3C)cn2C)cn1C [compound 10],2.6 (0.3) × 10^8 M^−1,1.1 (0.1) × 10^9 M^−1,3.1 (0.3) × 10^9 M^−1,5.1 (0.6) × 10^9 M^−1,–,little sequence specificity,–,–
COc1ccsc1C(=O)Nc1cc(C(=O)Nc2cc(C(=O)Nc3cc(C(=O)NCCCC(=O)Nc4cn(C)c(C(=O)Nc5cc(C(=O)Nc6cc(C(=O)Nc7cc(C(=O)NCCC(=O)NCCCN(C)C)n(C)c7)n(C)c6)n(C)c5)n4)n(C)c3)n(C)c2)n(C)c1 [compound 6],≦1.0 × 10^7 M^−1,≦1.0 × 10^7 M^−1,3.2 (0.6) × 10^8 M^−1,2×10^9 M^−1 and 2.0 (0.4) × 10^9 M^−1,> 200 fold,–,–,6 fold
